Measured values reported in patent US20240270821A1, “GIP/GLP1/GCG TRI-RECEPTOR AGONISTS AND USES THEREOF” (priority 2023, published 2024).
Read-outs that look alike come from different tables or passages of the source.

What was measured:
Format in all cases: cell-based
[1] = biological target: T1, hGLP-1R (Homo sapiens, UniProt P43220); test: Functional cAMP activation in the presence of 0.1% casein (no HSA); details: read-out: Relative cAMP EC50, hGLP-1R;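 also: intracellular cAMP rise after 30 min at 37 °C read by HTRF, normalized between buffer only (0%) and maximal control ligand (100%), four-parameter variable-slope fit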
T1 sequence (P43220 24-463): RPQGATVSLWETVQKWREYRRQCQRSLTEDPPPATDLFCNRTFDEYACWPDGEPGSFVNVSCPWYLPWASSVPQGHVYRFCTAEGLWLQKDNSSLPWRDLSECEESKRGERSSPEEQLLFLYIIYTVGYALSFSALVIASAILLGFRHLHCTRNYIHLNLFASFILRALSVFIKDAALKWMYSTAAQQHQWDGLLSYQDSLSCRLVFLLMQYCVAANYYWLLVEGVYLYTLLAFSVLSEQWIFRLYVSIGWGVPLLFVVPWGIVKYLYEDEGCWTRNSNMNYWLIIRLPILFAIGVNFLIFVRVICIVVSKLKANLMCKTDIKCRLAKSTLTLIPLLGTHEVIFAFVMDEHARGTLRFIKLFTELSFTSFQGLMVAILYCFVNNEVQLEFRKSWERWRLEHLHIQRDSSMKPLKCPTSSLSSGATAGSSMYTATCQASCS

[2] = biological target: hGcgR (Homo sapiens, UniProt P47871); test: as above; details: read-out: Relative cAMP EC50, hGcgR;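 also: intracellular cAMP rise after 30 min at 37 °C, read by HTRF against a cAMP standard curve, scaled from buffer only (0%) to maximal control ligand response (100%)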
hGcgR, sequence (P47871 26-477): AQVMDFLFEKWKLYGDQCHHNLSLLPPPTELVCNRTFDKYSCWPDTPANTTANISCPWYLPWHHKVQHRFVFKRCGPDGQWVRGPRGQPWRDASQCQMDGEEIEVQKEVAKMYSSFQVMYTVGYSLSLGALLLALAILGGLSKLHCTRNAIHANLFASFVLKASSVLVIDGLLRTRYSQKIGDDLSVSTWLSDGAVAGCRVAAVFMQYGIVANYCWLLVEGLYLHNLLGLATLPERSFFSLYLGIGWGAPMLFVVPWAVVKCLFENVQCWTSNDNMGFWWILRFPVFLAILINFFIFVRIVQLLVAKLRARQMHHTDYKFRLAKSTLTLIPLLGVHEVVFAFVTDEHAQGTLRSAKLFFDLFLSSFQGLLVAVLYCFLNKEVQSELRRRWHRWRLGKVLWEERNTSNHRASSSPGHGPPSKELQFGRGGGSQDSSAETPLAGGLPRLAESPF

[3] = biological target: human GcgR (Homo sapiens, UniProt P47871); test: Functional cAMP activity in the presence of 1% HSA; details: read-out: cAMP Rel EC50, hGcgR
human GcgR, sequence (P47871 26-477): as above

[4] = biological target: T2, hGIPR (Homo sapiens, UniProt P48546); test: Functional cAMP activation in the presence of 0.1% casein (no HSA); details: read-out: Relative cAMP EC50, hGIPR;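 also: intracellular cAMP rise after 30 min at 37 °C read by HTRF against a standard curve, scaled between buffer alone (0%) and top control ligand concentration (100%), four-parameter fit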
T2 sequence (P48546 22-466): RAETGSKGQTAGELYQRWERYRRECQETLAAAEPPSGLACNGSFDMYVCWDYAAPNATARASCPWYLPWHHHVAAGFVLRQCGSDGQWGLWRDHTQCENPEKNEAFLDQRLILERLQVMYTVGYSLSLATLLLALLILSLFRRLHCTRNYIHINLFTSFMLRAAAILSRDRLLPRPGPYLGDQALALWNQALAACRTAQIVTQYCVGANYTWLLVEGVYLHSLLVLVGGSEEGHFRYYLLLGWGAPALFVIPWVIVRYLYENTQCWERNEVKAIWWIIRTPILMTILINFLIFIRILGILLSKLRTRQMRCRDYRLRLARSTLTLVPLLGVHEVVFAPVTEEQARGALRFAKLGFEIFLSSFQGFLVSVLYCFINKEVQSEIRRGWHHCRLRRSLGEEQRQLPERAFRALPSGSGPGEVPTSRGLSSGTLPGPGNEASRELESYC

[5] = biological target: T1, hGLP-1R; test: Functional cAMP activity in the presence of 1% HSA; details: read-out: cAMP Rel EC50, hGLP-1R
[6] = biological target: T2, hGIPR; test: Functional cAMP activity in the presence of 1% HSA; details: read-out: cAMP Rel EC50, hGIPR
[7] = in the presence of 0.1% casein (no HSA), geometric mean of relative EC50
[8] = HEK-293 clonal cell line, 1% HSA, geometric mean of relative EC50

| SMILES | EC50 [1] [nM] | EC50 [2] [nM] | EC50 [3] [nM] | EC50 [4] [nM] | EC50 [5] [nM] | EC50 [6] [nM] | EC50 [1, 7] [nM] | EC50 [2, 7] [nM] | EC50 [3, 8] [nM] | EC50 [4, 7] [nM] | EC50 [5, 8] [nM] | EC50 [6, 8] [nM] |
| --- | --- | --- | --- | --- | --- | --- | --- | --- | --- | --- | --- | --- |
| CC[C@H](C)[C@H](NC(=O)[C@H](CC(C)C)NC(=O)[C@](C)(Cc1ccc(O)cc1)NC(=O)[C@@H](CCC(=O)O)NC(=O)[C@@H](NC(=O)[C@H](Cc1ccccc1)NC(=O)[C@H](CCC(=O)O)NC(=O)C(C)(C)NC(=O)[C@H](C)NC(=O)[C@H](C)NC(=O)[C@H](CCCCNC(=O)COCCOCCNC(=O)CC[C@H](NC(=O)CCCCCCCCCCCCCCCCC(=O)O)C(=O)O)NC(=O)[C@H](CCCN)NC(=O)[C@H](CC(=O)O)NC(=O)[C@H](CC(C)C)NC(=O)[C@](C)(CC(C)C)NC(=O)[C@@H](NC(=O)[C@](C)(CO)NC(=O)[C@H](Cc1ccncc1)NC(=O)[C@H](CC(=O)O)NC(=O)[C@H](CO)NC(=O)[C@@H](NC(=O)[C@](C)(Cc1ccccc1F)NC(=O)[C@@H](NC(=O)CNC(=O)[C@H](CCC(N)=O)NC(=O)C(C)(C)NC(=O)[C@@H](N)Cc1ccc(O)cc1)[C@@H](C)O)[C@@H](C)O)[C@@H](C)CC)[C@@H](C)CC)C(=O)N[C@@H](CCC(=O)O)C(=O)NCC(=O)NCC(=O)N1CCC[C@H]1C(=O)N[C@@H](CO)C(=O)N[C@@H](CO)C(=O)NCC(=O)N[C@@H](C)C(=O)N1CCC[C@H]1C(=O)N1CCC[C@H]1C(=O)N1CCC[C@H]1C(=O)N[C@@H](CO)C(=O)NCC(=O)N[C@@H](CO)C(N)=O [Example 671] | 0.166 | 1.81 | 152 | 0.00807 | 17.6 | 0.657 | – | – | – | – | – | – |
| CC[C@H](C)[C@H](NC(=O)[C@H](CC(C)C)NC(=O)[C@](C)(Cc1ccc(O)cc1)NC(=O)[C@@H](CCC(=O)O)NC(=O)[C@@H](NC(=O)[C@H](Cc1ccccc1)NC(=O)[C@H](CCC(=O)O)NC(=O)C(C)(C)NC(=O)[C@H](C)NC(=O)[C@H](C)NC(=O)[C@H](CCCCNC(=O)COCCOCCNC(=O)CC[C@H](NC(=O)CCCCCCCCCCCCCCCCC(=O)O)C(=O)O)NC(=O)[C@H](CCCN)NC(=O)[C@H](CC(=O)O)NC(=O)[C@H](CC(C)C)NC(=O)[C@](C)(CC(C)C)NC(=O)[C@@H](NC(=O)[C@](C)(CO)NC(=O)[C@H](Cc1ccncc1)NC(=O)[C@H](CC(=O)O)NC(=O)[C@H](CO)NC(=O)[C@@H](NC(=O)[C@](C)(Cc1ccccc1F)NC(=O)[C@@H](NC(=O)CNC(=O)[C@H](CCC(N)=O)NC(=O)C(C)(C)NC(=O)[C@@H](N)Cc1ccc(O)cc1)[C@@H](C)O)[C@@H](C)O)[C@@H](C)CC)[C@@H](C)CC)C(=O)N[C@@H](CCC(=O)O)C(=O)NCC(=O)NCC(=O)N1CCC[C@H]1C(=O)N[C@@H](CO)C(=O)N[C@@H](CO)C(=O)NCC(=O)N[C@@H](C)C(=O)N1CCC[C@H]1C(=O)N1CCC[C@H]1C(=O)N1CCC[C@H]1C(=O)N[C@@H](CO)C(=O)NCC(=O)N[C@H](C(=O)NCC(=O)N[C@@H](CCC(=O)O)C(N)=O)[C@@H](C)O [Example 689] | 0.214 | 1.81 | 182 | 0.0104 | 25.1 | 0.951 | – | – | – | – | – | – |
| CC[C@H](C)[C@H](NC(=O)[C@H](CC(C)C)NC(=O)[C@](C)(Cc1ccc(O)cc1)NC(=O)[C@@H](CCC(=O)O)NC(=O)[C@@H](NC(=O)[C@H](Cc1ccccc1)NC(=O)[C@H](CCC(=O)O)NC(=O)C(C)(C)NC(=O)[C@H](C)NC(=O)[C@H](C)NC(=O)[C@H](CCCCNC(=O)COCCOCCNC(=O)CC[C@H](NC(=O)CCCCCCCCCCCCCCCCC(=O)O)C(=O)O)NC(=O)[C@H](CCCN)NC(=O)[C@H](CC(=O)O)NC(=O)[C@H](CC(C)C)NC(=O)[C@](C)(CC(C)C)NC(=O)[C@@H](NC(=O)[C@](C)(CO)NC(=O)[C@H](Cc1ccncc1)NC(=O)[C@H](CC(=O)O)NC(=O)[C@H](CO)NC(=O)[C@@H](NC(=O)[C@](C)(Cc1ccccc1F)NC(=O)[C@@H](NC(=O)CNC(=O)[C@H](CCC(N)=O)NC(=O)C(C)(C)NC(=O)[C@@H](N)Cc1ccc(O)cc1)[C@@H](C)O)[C@@H](C)O)[C@@H](C)CC)[C@@H](C)CC)C(=O)N[C@@H](CCC(=O)O)C(=O)NCC(=O)NCC(=O)N1CCC[C@H]1C(=O)N[C@@H](CO)C(=O)N[C@@H](CO)C(=O)NCC(=O)N[C@@H](C)C(=O)N1CCC[C@H]1C(=O)N1CCC[C@H]1C(=O)N1CCC[C@H]1C(=O)N[C@@H](CO)C(=O)NCC(=O)N[C@@H](CO)C(=O)N[C@@H](CCC(=O)O)C(N)=O [Example 702] | 0.243 | 1.5 | 196 | 0.0116 | 28.4 | 1.25 | – | – | – | – | – | – |
| CC[C@H](C)[C@H](NC(=O)[C@H](CC(C)C)NC(=O)[C@](C)(Cc1ccc(O)cc1)NC(=O)[C@@H](CCC(=O)O)NC(=O)[C@@H](NC(=O)[C@H](Cc1ccccc1)NC(=O)[C@H](CCC(=O)O)NC(=O)C(C)(C)NC(=O)[C@H](C)NC(=O)[C@H](C)NC(=O)[C@H](CCCCNC(=O)COCCOCCNC(=O)CC[C@H](NC(=O)CCCCCCCCCCCCCCCCC(=O)O)C(=O)O)NC(=O)[C@H](CCCN)NC(=O)[C@H](CC(=O)O)NC(=O)[C@H](CC(C)C)NC(=O)[C@](C)(CC(C)C)NC(=O)[C@@H](NC(=O)[C@](C)(CO)NC(=O)[C@H](Cc1ccncc1)NC(=O)[C@H](CC(=O)O)NC(=O)[C@H](CO)NC(=O)[C@@H](NC(=O)[C@](C)(Cc1ccccc1F)NC(=O)[C@@H](NC(=O)CNC(=O)[C@H](CCC(N)=O)NC(=O)C(C)(C)NC(=O)[C@@H](N)Cc1ccc(O)cc1)[C@@H](C)O)[C@@H](C)O)[C@@H](C)CC)[C@@H](C)CC)C(=O)N[C@@H](CCC(=O)O)C(=O)NCC(=O)NCC(=O)N1CCC[C@H]1C(=O)N[C@@H](CO)C(=O)N[C@@H](CO)C(=O)NCC(=O)N[C@@H](C)C(=O)N1CCC[C@H]1C(=O)N1CCC[C@H]1C(=O)N1CCC[C@H]1C(=O)N[C@@H](CO)C(=O)NCC(=O)N[C@@H](CO)C(=O)N[C@@H](CCC(=O)O)C(=O)N[C@@H](CCC(=O)O)C(N)=O [Example 704] | 0.287 | 1.85 | 239 | 0.013 | 33.9 | 1.2 | – | – | – | – | – | – |
| CC[C@H](C)[C@H](NC(=O)[C@H](CC(C)C)NC(=O)[C@](C)(Cc1ccc(O)cc1)NC(=O)[C@@H](CCC(=O)O)NC(=O)[C@@H](NC(=O)[C@H](Cc1ccccc1)NC(=O)[C@H](CCC(=O)O)NC(=O)C(C)(C)NC(=O)[C@H](C)NC(=O)[C@H](C)NC(=O)[C@H](CCCCNC(=O)COCCOCCNC(=O)CC[C@H](NC(=O)CCCCCCCCCCCCCCCCC(=O)O)C(=O)O)NC(=O)[C@H](CCCN)NC(=O)[C@H](CC(=O)O)NC(=O)[C@H](CC(C)C)NC(=O)[C@](C)(CC(C)C)NC(=O)[C@@H](NC(=O)[C@](C)(CO)NC(=O)[C@H](Cc1ccncc1)NC(=O)[C@H](CC(=O)O)NC(=O)[C@H](CO)NC(=O)[C@@H](NC(=O)[C@](C)(Cc1ccccc1F)NC(=O)[C@@H](NC(=O)CNC(=O)[C@H](CCC(N)=O)NC(=O)C(C)(C)NC(=O)[C@@H](N)Cc1ccc(O)cc1)[C@@H](C)O)[C@@H](C)O)[C@@H](C)CC)[C@@H](C)CC)C(=O)N[C@@H](CCC(=O)O)C(=O)NCC(=O)NCC(=O)N1CCC[C@H]1C(=O)N[C@@H](CO)C(=O)N[C@@H](CO)C(=O)NCC(=O)N[C@@H](CCC(=O)O)C(=O)N1CCC[C@H]1C(=O)N1CCC[C@H]1C(=O)N1CCC[C@H]1C(=O)N[C@@H](CO)C(=O)NCC(=O)N[C@@H](CO)C(N)=O [Example 707] | 0.248 | 1.06 | 199 | 0.0107 | 30.6 | 1.05 | – | – | – | – | – | – |
| CC[C@H](C)[C@H](NC(=O)[C@H](CC(C)C)NC(=O)[C@](C)(Cc1ccc(O)cc1)NC(=O)[C@@H](CCC(=O)O)NC(=O)[C@@H](NC(=O)[C@H](Cc1ccccc1)NC(=O)[C@H](CCC(=O)O)NC(=O)C(C)(C)NC(=O)[C@H](C)NC(=O)[C@H](C)NC(=O)[C@H](CCCCNC(=O)COCCOCCNC(=O)CC[C@H](NC(=O)CCCCCCCCCCCCCCCCC(=O)O)C(=O)O)NC(=O)[C@H](CCCN)NC(=O)[C@H](CC(=O)O)NC(=O)[C@H](CC(C)C)NC(=O)[C@](C)(CC(C)C)NC(=O)[C@@H](NC(=O)[C@](C)(CO)NC(=O)[C@H](Cc1ccncc1)NC(=O)[C@H](CC(=O)O)NC(=O)[C@H](CO)NC(=O)[C@@H](NC(=O)[C@](C)(Cc1ccccc1F)NC(=O)[C@@H](NC(=O)CNC(=O)[C@H](CCC(N)=O)NC(=O)C(C)(C)NC(=O)[C@@H](N)Cc1ccc(O)cc1)[C@@H](C)O)[C@@H](C)O)[C@@H](C)CC)[C@@H](C)CC)C(=O)N[C@@H](CCC(=O)O)C(=O)NCC(=O)NCC(=O)N1CCC[C@H]1C(=O)N[C@@H](CO)C(=O)N[C@@H](CO)C(=O)NCC(=O)N[C@@H](CCC(=O)O)C(=O)N1CCC[C@H]1C(=O)N1CCC[C@H]1C(=O)N1CCC[C@H]1C(=O)N[C@@H](CO)C(=O)NCC(=O)N[C@@H](CO)C(=O)N[C@H](CCC(=O)O)C(N)=O [Example 720] | – | – | – | – | – | – | 0.245 | 1.78 | 239 | 0.0103 | 28.3 | 1.02 |
